Reference: ChEMBL document CHEMBL1201862, “PubChem BioAssay data set” (2004)
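Growth conditions: 96-well plates. Treatment: test compound, 48 hours, 5 concentrations. Analysis: linear interpolation between bracketing concentrations; unreached endpoints set to highest concentration. Abbreviation: GI50, concentration required for 50% inhibition of growth.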 Calls of active or inactive are those of the source. No stated cut-off is given here; in the data, active = GI50 up to about 1.1 µM and inactive = higher.

What was measured:
Experiment in all cases: DTP human tumour cell line panel, 48 h
CAKI-1 = test system: CAKI-1
MOLT-4 = test system: MOLT-4
U-251 = test system: U-251
HCT-15 = test system: HCT-15
UACC-257 = test system: UACC-257
A498 = test system: A498
KM12 = test system: KM12
MDA-MB-231 = test system: MDA-MB-231
HCC 2998 = test system: HCC 2998
SF-268 = test system: SF-268
DU-145 = test system: DU-145
OVCAR-4 = test system: OVCAR-4
RPMI-8226 = test system: RPMI-8226
SF-539 = test system: SF-539
LOX IMVI = test system: LOX IMVI
RXF 393 = test system: RXF 393
A549 = test system: A549
IGROV-1 = test system: IGROV-1
MDA-N = test system: MDA-N
HOP-62 = test system: HOP-62

SMILES	GI50 (CAKI-1)	GI50 (MOLT-4)	GI50 (U-251)	GI50 (HCT-15) [µM]	GI50 (UACC-257)	GI50 (A498)	GI50 (KM12)	GI50 (MDA-MB-231)	GI50 (HCC 2998)	GI50 (SF-268)	GI50 (DU-145)	GI50 (OVCAR-4)	GI50 (RPMI-8226)	GI50 (SF-539)	GI50 (LOX IMVI)	GI50 (RXF 393)	GI50 (A549)	GI50 (IGROV-1)	GI50 (MDA-N)	GI50 (HOP-62)
CCCCCCCCCCCCCCCCNc1nc(=O)n(C2CC(O)C(CO)O2)cc1F (stereo not given)	2.1 µM (inactive)	4.72 µM (inactive)	11.7 µM (inactive)	0.875	16.7 µM (inactive)	> 10 µM (inactive)	13.8 µM (inactive)	21.7 µM (inactive)	0.071 µM (active)	2.93 µM (inactive)	10 µM (inactive)	15.7 µM (inactive)	15.8 µM (inactive)	0.284 µM (active)	10.5 µM (inactive)	13.5 µM (inactive)	0.94 µM (active)	11.6 µM (inactive)	16 µM (inactive)	7.52 µM (inactive)
COC(=O)[C@@H]1C=C[C@H](OC2OC(COC(C)=O)C(OC(C)=O)C(OC(C)=O)C2OC(C)=O)n2c(=O)c3ccccc3c(=O)n21 (stereo not given in full)	3.45 µM (inactive)	11.8 µM (inactive)	12 µM (inactive)	10.8	17.2 µM (inactive)	12.2 µM (inactive)	10.7 µM (inactive)	> 10 µM (inactive)	16.1 µM (inactive)	> 10 µM (inactive)	16.1 µM (inactive)	16.6 µM (inactive)	4.66 µM (inactive)	15.7 µM (inactive)	10.9 µM (inactive)	6.05 µM (inactive)	21.4 µM (inactive)	18.2 µM (inactive)	> 10 µM (inactive)	17.9 µM (inactive)
CC(=O)[C@@]1(O)CC[C@H]2[C@@H]3C[C@H](C)C4=CC(=O)C=C[C@]4(C)[C@@]3(F)[C@@H](O)C[C@@]21C [FLUOROMETHOLONE]	> 100 µM (inactive)	> 100 µM (inactive)	> 100 µM (inactive)	> 100	> 100 µM (inactive)	> 100 µM (inactive)	> 100 µM (inactive)	> 91 µM (inactive)	> 100 µM (inactive)	> 95.1 µM (inactive)	> 51.4 µM (inactive)	> 100 µM (inactive)	> 14.6 µM (inactive)	> 87.3 µM (inactive)	> 100 µM (inactive)	> 91.4 µM (inactive)	> 100 µM (inactive)	> 100 µM (inactive)	> 100 µM (inactive)	> 100 µM (inactive)
[N-]=[N+]=CC(=O)CCC(N)C(=O)O (stereo not given)	3.8 µM (inactive)	0.721 µM (active)	1.55 µM (inactive)	0.815	11 µM (inactive)	24.8 µM (inactive)	0.541 µM (active)	8.63 µM (inactive)	1.67 µM (inactive)	1.25 µM (inactive)	1.75 µM (inactive)	29.9 µM (inactive)	3.54 µM (inactive)	0.482 µM (active)	0.689 µM (active)	8.18 µM (inactive)	1.01 µM (active)	1.92 µM (inactive)	1.32 µM (inactive)	1.31 µM (inactive)
O=c1c2cc([N+](=O)[O-])ccc2n2n1Cc1ccccc1C2	75 µM (inactive)	35.8 µM (inactive)	> 100 µM (inactive)	> 100	> 100 µM (inactive)	63.8 µM (inactive)	> 100 µM (inactive)	> 100 µM (inactive)	> 100 µM (inactive)	> 100 µM (inactive)	> 100 µM (inactive)	> 100 µM (inactive)	> 100 µM (inactive)	> 100 µM (inactive)	> 100 µM (inactive)	> 100 µM (inactive)	79.3 µM (inactive)	> 100 µM (inactive)	> 100 µM (inactive)	> 100 µM (inactive)
CCN(CC)CCCC(C)Nc1ccnc2cc(Cl)ccc12 (stereo not given) [CHLOROQUINE PHOSPHATE]	20.8 µM (inactive)	15.2 µM (inactive)	21.2 µM (inactive)	24.9	23.1 µM (inactive)	24.3 µM (inactive)	31.8 µM (inactive)	15.8 µM (inactive)	19.5 µM (inactive)	60.7 µM (inactive)	7.94 µM (inactive)	51.3 µM (inactive)	19.5 µM (inactive)	16.6 µM (inactive)	20.6 µM (inactive)	2.4 µM (inactive)	39.5 µM (inactive)	24.5 µM (inactive)	16.6 µM (inactive)	34.4 µM (inactive)
Cc1cc(C)c(P2C(=C(O[Si](C(C)C)(C(C)C)C(C)C)C(C)(C)C)C2(c2ccccc2)c2ccccc2)c(C)c1 (stereo not given)	> 100 µM (inactive)	> 100 µM (inactive)	> 100 µM (inactive)	> 100	> 100 µM (inactive)	> 100 µM (inactive)	94 µM (inactive)	> 100 µM (inactive)	> 100 µM (inactive)	> 100 µM (inactive)	> 100 µM (inactive)	> 100 µM (inactive)	62.8 µM (inactive)	> 100 µM (inactive)	> 100 µM (inactive)	> 100 µM (inactive)	61.8 µM (inactive)	> 100 µM (inactive)	> 100 µM (inactive)	> 100 µM (inactive)
CC(=O)Nc1nnc(S(=O)(=O)NC(=S)Nc2ccc(Cl)cc2)s1	> 100 µM (inactive)	> 100 µM (inactive)	> 100 µM (inactive)	> 100	> 100 µM (inactive)	> 100 µM (inactive)	> 100 µM (inactive)	> 100 µM (inactive)	> 100 µM (inactive)	> 100 µM (inactive)	> 100 µM (inactive)	> 100 µM (inactive)	> 100 µM (inactive)	> 100 µM (inactive)	> 100 µM (inactive)	> 100 µM (inactive)	> 100 µM (inactive)	> 100 µM (inactive)	> 100 µM (inactive)	> 100 µM (inactive)
O=C(/C=C/c1ccccc1)CCN1CCOCC1	8.39 µM (inactive)	4.28 µM (inactive)	12.9 µM (inactive)	8.57	12.2 µM (inactive)	19 µM (inactive)	7.52 µM (inactive)	16.6 µM (inactive)	20 µM (inactive)	12 µM (inactive)	18.8 µM (inactive)	20.9 µM (inactive)	1.56 µM (inactive)	12.1 µM (inactive)	10.9 µM (inactive)	12.7 µM (inactive)	24.2 µM (inactive)	15.7 µM (inactive)	14.2 µM (inactive)	27.3 µM (inactive)
CCc1nc(N)nc(N)c1-c1ccc(Cc2ccccc2)c([N+](=O)[O-])c1	0.0183 µM (active)	< 0.0127 µM (active)	< 0.0178 µM (active)	< 0.01	23.6 µM (inactive)	3.05 µM (inactive)	0.0762 µM (active)	38.3 µM (inactive)	0.151 µM (active)	0.0192 µM (active)	0.0585 µM (active)	16.6 µM (inactive)	0.0622 µM (active)	0.0475 µM (active)	< 0.01 µM (active)	24.5 µM (inactive)	< 0.01 µM (active)	0.0702 µM (active)	< 0.046 µM (active)	0.173 µM (active)
CN1N=C(c2ccncc2)OC1c1ccc(Cl)c(Cl)c1 (stereo not given)	> 100 µM (inactive)	44.5 µM (inactive)	> 100 µM (inactive)	> 100	> 100 µM (inactive)	82 µM (inactive)	> 100 µM (inactive)	> 100 µM (inactive)	> 100 µM (inactive)	> 100 µM (inactive)	> 100 µM (inactive)	> 100 µM (inactive)	> 100 µM (inactive)	> 100 µM (inactive)	> 100 µM (inactive)	74.1 µM (inactive)	> 100 µM (inactive)	> 100 µM (inactive)	> 100 µM (inactive)	> 100 µM (inactive)
COC1(OC)CCN(Cc2ccccc2)C1=O	3.89 µM (inactive)	2.55 µM (inactive)	17.3 µM (inactive)	13.4	14.2 µM (inactive)	17.5 µM (inactive)	17.4 µM (inactive)	18.5 µM (inactive)	18.2 µM (inactive)	> 38.1 µM (inactive)	15.2 µM (inactive)	16 µM (inactive)	6.32 µM (inactive)	14 µM (inactive)	5.45 µM (inactive)	12.3 µM (inactive)	17.7 µM (inactive)	13.9 µM (inactive)	10.7 µM (inactive)	20.6 µM (inactive)
C/C(=N\NC(=[Se])N(C)C)c1ccccn1	0.188 µM (active)	< 0.01 µM (active)	< 0.01 µM (active)	0.0352	< 0.01 µM (active)	0.4 µM (active)	0.0234 µM (active)	0.0131 µM (active)	0.459 µM (active)	0.216 µM (active)	1.41 µM (inactive)	0.103 µM (active)	< 0.01 µM (active)	0.577 µM (active)	< 0.01 µM (active)	0.455 µM (active)	0.02 µM (active)	< 0.01 µM (active)	1.89 µM (inactive)	< 0.01 µM (active)
Cc1nc2c(=O)[nH]c(=O)nc-2n(CCO)c1C	> 100 µM (inactive)	> 100 µM (inactive)	> 100 µM (inactive)	> 100	> 100 µM (inactive)	> 100 µM (inactive)	> 100 µM (inactive)	> 100 µM (inactive)	> 100 µM (inactive)	> 100 µM (inactive)	> 100 µM (inactive)	> 100 µM (inactive)	> 100 µM (inactive)	> 100 µM (inactive)	> 100 µM (inactive)	> 100 µM (inactive)	> 100 µM (inactive)	> 100 µM (inactive)	> 100 µM (inactive)	> 100 µM (inactive)
